Laboratory results: patent publication US11976074B1, “Crystalline salts of Linsitinib” (Sling Therapeutics, Inc., priority 2023, dated 2024)

Legend:
Type in all cases: physicochemical
[1] = pH-solubility of linsitinib free base and selected salts (pH 1.5 to 6.5, overnight equilibration, HPLC); conditions: for solubility: overnight equilibration; for Solubility compared with the free base or Phosphate 1: lower pH (<3); for Final pH: after overnight equilibration
Procedure: The pH-solubility of selected salts (Phosphate 1, L-Malate 1, Esylate 1, and Esylate 2) was evaluated and compared with linsitinib free base. The solubility analysis was conducted in a manner consistent with a previous study that was performed with linsitinib free base. Aqueous solutions were prepared between pH 1.5 and pH 6.5 in 0.5 pH unit increments via titration of the solution using NaOH and HCl. For each salt or the free base, an attempt was made to reach saturation in each of the solutions by adding sufficient material to the solution such that excess solids remained. If saturation was achieved, the pH of the solution was measured and adjusted to the target pH and additional material was added if needed. The samples were then equilibrated overnight. The final pH of the solution was measured, the solids were filtered and selected samples were analyzed by PXRD. The concentration of linsitinib in the filtrate was quantitated by HPLC (diluted as needed). In some cases, significant drift (+1 pH unit or more) of the final pH from the target pH was observed after the overnight equilibration.
The pH-solubility data is shown graphically in FIG. 89. […] Indeed, it should be noted that in the majority of the low pH systems, higher initial dissolution/solubility was observed followed by precipitation of the material from solution upon longer equilibration.

[2] = Water activity slurries of Esylate 2 seeded with Esylate 1; conditions: THF/H2O, aw 0.45-0.91, RT
Source text: Water activity slurries were set-up with Esylate 2 and seeds of Esylate 1 to explore the presence of a potential hydrate and any associated critical water activity (Table 12). Four slurries were set-up in varying ratios of THF and H2O corresponding to 0.45, 0.63, 0.78 and 0.91 aw respectively.

[3] = Equilibrium solubility in bio-relevant media (FaSSGF pH 1.6, FaSSIF pH 6.5); conditions: for Solubility compared with the free base: in words
Source text: In addition to the pH-solubility data, a comparison of the equilibrium solubility of linsitinib free base and salts in two bio-relevant media (Table 28), fasted state simulated gastric fluid (FaSSGF pH 1.6) and intestinal fluid (FaSSIF pH 6.5) was completed. […] A saturated solution of Esylate 1 was not achieved during this study and therefore the equilibrium solubility could be higher than determined. It should be noted that variability of almost a full pH unit was noted among the samples making a direct comparison more challenging.

[4] = Interconversion slurries of esylate forms; conditions: 4° C., RT, 60° C.; MEK and 2:1 EtOH:HEP
Procedure: To find the thermodynamically stable form of the mono-salt, interconversion slurries were set-up at three different temperatures in two different solvent systems between Esylates 1, 2, 3 and Esylate 4+Esylate 5 (Table 11). A sample of Esylate 4+Esylate 5 was included as part of the interconversion slurry in-spite of Esylate 4 being a solvate as Esylate 5 could not be isolated as a separate pure phase until the drying experiment was carried out on Esylate 4 towards the end of the study. Slurries were set-up at 4° C., RT and at 60° C. in MEK and 2:1 EtOH:HEP, resulting in a total of six experiments which were run for a total of 7 days.

[5] = Water activity boundary between malate forms; conditions: or 90% relative humidity
Procedure: Malate 2, Malate 4, and Malate 5 were all obtained from high water activity conditions and are suspected to be hydrated forms. Based on the weight loss in the TG thermograms of Malate 4 and Malate 5, they could be di-hydrates. The water activity boundary between Malate 4 and Malate 1 was determined to be approximately 0.9 water activity, or 90% relative humidity. At a water activity of 0.8, Malate 1 was obtained; however, there were additional peaks present by PXRD. […]

[6] = Polymorph screen of linsitinib malate (PXRD/XRPD result); conditions: solvent and conditions per sample no.; for PXRD Results: polymorph screen of linsitinib malate, slurry, cooling, precipitation or lyophilization
Procedure: A Rigaku SmartLab X-Ray Diffractometer was configured in Bragg-Brentano reflection geometry equipped with a beam stop and knife edge to reduce incident beam and air scatter.
A polymorph screen of linsitinib malate was conducted. Experiments were designed to target thermodynamically stable forms and therefore utilized techniques such as long-term slurry, cooling, anti-solvent addition, and evaporation. Reaction crystallization experiments with linsitinib free base and L-malic acid were also conducted. Additionally, non-crystalline material was used as an alternative starting material as this can provide access to polymorphs that would not be accessible from crystalline starting material.

[7] = Thermogravimetric analysis (TGA)
Procedure: The TG analysis was carried out using a TA Instruments […] Discovery Series instrument. The instrument balance was calibrated using class M weights and the temperature calibration was performed using alumel. The nitrogen purge was 10 mL per minute at the balance and 25 mL per minute at the furnace. The sample was placed into a pre-tared platinum pan and heated from approximately 25° C. to 300° C. at a rate of 10° C. per minute.

[8] = aqueous solution, pH 4, aqueous buffer, thermodynamic from solid, target pH 4.0, * = clear solution, not equilibrium value, read-out: Solubility
[9] = aqueous solution, pH 4.5, aqueous buffer, thermodynamic from solid, target pH 4.5, * = clear solution, not equilibrium value, read-out: Solubility
[10] = aqueous solution, pH 5, aqueous buffer, thermodynamic from solid, target pH 5.0, read-out: Solubility
[11] = aqueous solution, pH 5.5, aqueous buffer, thermodynamic from solid, target pH 5.5, read-out: Solubility
[12] = aqueous solution, pH adjusted with NaOH and HCl, pH 1.5, aqueous buffer, thermodynamic from solid, target pH 1.5, * = clear solution, not equilibrium value, read-out: Solubility
[13] = aqueous solution, pH adjusted with NaOH and HCl, pH 2, aqueous buffer, thermodynamic from solid, target pH 2.0, * = clear solution, not equilibrium value, read-out: Solubility
[14] = aqueous solution, pH adjusted with NaOH and HCl, pH 2.5, aqueous buffer, thermodynamic from solid, target pH 2.5, * = clear solution, not equilibrium value, read-out: Solubility
[15] = aqueous solution, pH adjusted with NaOH and HCl, pH 3, aqueous buffer, thermodynamic from solid, target pH 3.0, * = clear solution, not equilibrium value, read-out: Solubility
[16] = aqueous solution, pH adjusted with NaOH and HCl, pH 3.5, aqueous buffer, thermodynamic from solid, target pH 3.5, * = clear solution, not equilibrium value, read-out: Solubility
[17] = fasted state simulated gastric fluid (FaSSGF), pH 1.6, fassgf or other biorelevant, thermodynamic from solid, FaSSGF (pH 1.6), read-out: Solubility

With CCS(=O)(=O)O.C[C@]1(O)C[C@@H](c2nc(-c3ccc4ccc(-c5ccccc5)nc4c3)c3c(N)nccn32)C1 [Esylate 1] as the compound, how does the solubility [1, 8] read?
Its solubility is 32.3 mg/mL.

What about the solubility [1, 9] of the same compound?
Its solubility is 36.6 mg/mL.

What about the solubility [1, 10] of the same compound?
Its solubility is 28.7 mg/mL.

And the solubility [1, 11]?
The solubility was 0.0517 mg/mL.

And the solubility [1, 12]?
The solubility was 64.3 mg/mL.

What about the solubility [1, 13] of the same compound?
Its solubility is 59.1 mg/mL.

What about the solubility [1, 14] of the same compound?
Its solubility is 47.3 mg/mL.

And the solubility [1, 15]?
Its solubility is 53 mg/mL.

And the solubility [1, 16]?
Its solubility is 31 mg/mL.

What about the “Solubility compared to the free base and other salts” value ([1]; between pH 3 and pH 4) of the same compound?
The value was “highest solubility”.

What about the “Solubility compared with the free base or Phosphate 1” value [1] of the same compound?
The value was “significantly higher solubility”.

What about the “Final pH” value ([1]; target pH 1.5) of the same compound?
The value was 1.52.

And the “Final pH” value ([1]; target pH 2.0)?
Its value is 1.99.

And the “Final pH” value ([1]; target pH 2.5)?
The value was 2.50.

And the “Final pH” value ([1]; target pH 3.0)?
Its value is 3.04.

What about the “Final pH” value ([1]; target pH 3.5) of the same compound?
Its value is 3.50.

And the “Final pH” value ([1]; target pH 4.0)?
Its value is 3.94.

What about the “Final pH” value ([1]; target pH 4.5) of the same compound?
The value was 4.36.

And the “Final pH” value ([1]; target pH 5.0)?
The value was 3.86.

And the “Final pH” value ([1]; target pH 5.5)?
Its value is 4.47.

What about the “Final pH” value ([1]; target pH 6.0) of the same compound?
The value was 9.08.

And the “Final pH” value ([1]; target pH 6.5)?
The value was 4.46.

What about the solubility ([1]; target pH 6.5) of the same compound?
The solubility was 0.0296 mg/mL.

And the “Relative stability of the form in water activity slurries” value [2]?
The value was “metastable”.

What about the “Final pH” value ([3]; FaSSGF (pH 1.6)) of the same compound?
The value was 3.30.

What about the “Solubility compared with the free base” value ([3]; FaSSGF (pH 1.6)) of the same compound?
The value was “highest solubility by a significant margin”.

What about the “Final pH” value ([3]; FaSSIF (pH 6.5)) of the same compound?
The value was 6.20.

What about the solubility ([3]; FaSSIF (pH 6.5)) of the same compound?
Its solubility is 0.006 mg/mL.

What about the “Solubility compared with the free base” value ([3]; FaSSIF (pH 6.5)) of the same compound?
Its value is “lower solubility”.

And the solubility [3, 17]?
The solubility was at least 61.6 mg/mL.

For CCS(=O)(=O)O.C[C@]1(O)C[C@@H](c2nc(-c3ccc4ccc(-c5ccccc5)nc4c3)c3c(N)nccn32)C1 [Esylate 5], which “Relative stability of the form in interconversion slurries” value [4] is on record?
Its value is “metastable”.

Which results are given for C[C@]1(O)C[C@@H](c2nc(-c3ccc4ccc(-c5ccccc5)nc4c3)c3c(N)nccn32)C1.O=C(O)C[C@H](O)C(=O)O [L-Malate 1]?
solubility [1, 8]: 1.34 mg/mL; solubility [1, 9]: 0.337 mg/mL; solubility [1, 10]: 0.274 mg/mL; solubility [1, 11]: 0.192 mg/mL; solubility ([1]; aqueous solution, pH 6, aqueous buffer, thermodynamic from solid, target pH 6.0, read-out: Solubility): 0.122 mg/mL; solubility ([1]; aqueous solution, pH 6.5, aqueous buffer, thermodynamic from solid, target pH 6.5, read-out: Solubility): 0.0165 mg/mL; solubility [1, 12]: 82.3 mg/mL; solubility [1, 13]: 74 mg/mL; solubility [1, 14]: 39 mg/mL; solubility [1, 15]: 15.3 mg/mL; solubility [1, 16]: 4.29 mg/mL; Solubility compared with the free base or Phosphate 1 [1]: significantly higher solubility; Final pH ([1]; target pH 1.5): 1.45; Final pH ([1]; target pH 2.0): 2.02; Final pH ([1]; target pH 2.5): 2.37; Final pH ([1]; target pH 3.0): 2.80; Final pH ([1]; target pH 3.5): 3.08; Final pH ([1]; target pH 4.0): 3.38; Final pH ([1]; target pH 4.5): 5.05; Final pH ([1]; target pH 5.0): 5.16; Final pH ([1]; target pH 5.5): 5.32; Final pH ([1]; target pH 6.0): 5.50; Final pH ([1]; target pH 6.5): 5.18; Water activity boundary between Malate 4 and Malate 1 [5]: approximately 0.9 water activity; Final pH ([3]; FaSSGF (pH 1.6)): 2.97; Solubility compared with the free base ([3]; FaSSGF (pH 1.6)): largely comparable; Final pH ([3]; FaSSIF (pH 6.5)): 5.46; Solubility compared with the free base ([3]; FaSSIF (pH 6.5)): higher solubility than the free base; solubility [3, 17]: 8.13 mg/mL; solubility ([3]; fasted state simulated intestinal fluid (FaSSIF), pH 6.5, fassif, thermodynamic from solid, FaSSIF (pH 6.5), read-out: Solubility): 0.044 mg/mL

With C[C@]1(O)C[C@@H](c2nc(-c3ccc4ccc(-c5ccccc5)nc4c3)c3c(N)nccn32)C1.O=C(O)C[C@H](O)C(=O)O [L-Malate 2] as the compound, how does the “PXRD Results” value ([6]; listed as 4-45) read?
Its value is “Malate 2”.

Which “TGA Results (weight loss)” value ([7]; 90° C. to 139° C.) does the source give for C[C@]1(O)C[C@@H](c2nc(-c3ccc4ccc(-c5ccccc5)nc4c3)c3c(N)nccn32)C1.O=C(O)C[C@H](O)C(=O)O [L-Malate 3] here?
Its value is 0.6%, 90 °C to 139 °C.

What about the “TGA Results (weight loss)” value ([7]; start to 90° C.) of the same compound?
The value was 3.0%, start to 90 °C.

What about the “PXRD Results” value ([6]; listed as 4-22) of the same compound?
Its value is “Malate 3; LC”.

With C[C@]1(O)C[C@@H](c2nc(-c3ccc4ccc(-c5ccccc5)nc4c3)c3c(N)nccn32)C1.O=C(O)C[C@H](O)C(=O)O [L-Malate 6] as the compound, how does the “TGA Results (weight loss)” value ([7]; start to 61° C.) read?
The value was 4.2%, start to 61 °C.

For C[C@]1(O)C[C@@H](c2nc(-c3ccc4ccc(-c5ccccc5)nc4c3)c3c(N)nccn32)C1.O=C(O)C[C@H](O)C(=O)O [L-Malate 9], which “XRPD Results” value ([6]; polymorph screen starting from non-crystalline linsitinib L-malate, vapor stress, humidity stress, slurry or precipitation, listed as 4-66) is on record?
Its value is “Malate 9”.
